Drawing on PMC2693460 (Cancer chemotherapy and pharmacology, 2009), this text covers IC50 for one compound.

The target in this assay is T1, ABCG2 (Homo sapiens, UniProt Q9UNQ0).
T1 sequence (Q9UNQ0 1-655): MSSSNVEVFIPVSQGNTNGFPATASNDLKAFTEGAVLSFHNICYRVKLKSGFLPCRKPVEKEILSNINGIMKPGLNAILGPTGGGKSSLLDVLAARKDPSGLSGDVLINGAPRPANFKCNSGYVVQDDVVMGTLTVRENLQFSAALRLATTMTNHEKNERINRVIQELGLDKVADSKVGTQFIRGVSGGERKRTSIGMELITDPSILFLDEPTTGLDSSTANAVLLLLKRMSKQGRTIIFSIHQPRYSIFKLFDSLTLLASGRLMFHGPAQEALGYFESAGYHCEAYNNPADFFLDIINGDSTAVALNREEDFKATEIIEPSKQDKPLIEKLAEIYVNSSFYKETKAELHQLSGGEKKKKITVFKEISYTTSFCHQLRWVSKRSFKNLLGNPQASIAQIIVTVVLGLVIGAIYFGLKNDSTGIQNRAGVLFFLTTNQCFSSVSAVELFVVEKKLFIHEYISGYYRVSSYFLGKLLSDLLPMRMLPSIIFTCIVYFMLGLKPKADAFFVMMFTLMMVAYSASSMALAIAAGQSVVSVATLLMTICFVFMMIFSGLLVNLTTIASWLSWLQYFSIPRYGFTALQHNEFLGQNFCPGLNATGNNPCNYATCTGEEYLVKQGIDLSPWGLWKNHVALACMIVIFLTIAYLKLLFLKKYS
The class given is binding.

Broadly, the IC50 is the concentration needed to halve the response being measured. Higher therefore signals a need for much substance.

In turn, `CCN(CC)CCN1C(=O)c2c(c3c4cccc(Cl)c4n([C@@H]4O[C@H](CO)[C@@H](OC)[C@H](O)[C@H]4O)c3c3[nH]c4c(Cl)cccc4c23)C1=O` [becatecarin] came in with an IC50 of 2100 nM.
